Values of other authors as cited in article PMC3172902 (British Journal of Cancer, 2011).

Molecular target: CDK2 (Homo sapiens, UniProt P24941)
Experiment: cell-free CDK2 inhibition (value printed without citation; method not described)
Type: biochemical

- IC50: 19 nM
Substance: NU6252
